# Positions of bridges follow the written chain, without caps; N, C: chain ends. Non-standard residues stand in square brackets, D forms with d. Residues, ends and D or L forms follow the SMILES beside them.
# Tests used:
# [1] = In vitro plasma stability in heparin-treated fresh rat plasma at 37° C.; format: in vitro ADME; settings: for AUC0-240: time 0 to 240 minutes; for remaining at 1 min, 1 μM / remaining at 5 min, 1 μM / remaining at 0.25 h, 1 μM / remaining at 0.5 h, 1 μM / remaining at 1 h, 1 μM / remaining at 2 h, 1 μM: heparin-treated fresh rat plasma
# Procedure: GPR-397 and GPR-405 were independently added to fresh rat plasma at a final in-vial concentration of 1 μM. The peptides were incubated in a water bath at 37° C. over a time course that included the following points (in minutes): 0, 1, 5, 15, 30, 60, 120, 240, and 1440. After the incubation time was completed, a 50 μL aliquot of plasma was removed and proteins were precipitated using a solution containing internal standard (THR-123 at 150 ng/mL) in methanol with 0.5% acetic acid (v/v). The samples were centrifuged at 13,000 RPM for 5 minutes, and a 100 μL aliquot of supernatant was removed and transferred to a 96-well plate containing 100 μL of reconstitution solution (Water/MeOH/Acetic Acid/TFA, 60/40/0.2/0.05, v/v/v/v). A calibration curve and quality control (QC) samples were prepared in parallel in the same manner as the incubation samples. The calibration range for this assay was from 0.02 to 2.0 μM in rat plasma. The extracted calibrants, QC, and incubation samples were injected onto an AB SCIEX API 2000 LC-MS/MS system. Chromatographic separation was performed using a reversed-phase C18 HPLC column (Ace-3 C18, 30×2.1 mm, 3 μm). The solvent system consisted of Milli-Q water, acetonitrile and formic acid. Analyte and internal standard were detected using the multiple reaction monitoring (MRM) scan mode. Calibration curves were generated by using a weighted (1/concentration) quadratic regression analysis of the peak area ratios (analyte/internal standard) versus the nominal concentration of the calibration standards. The concentration of the analyte in the incubation samples was determined by back-calculating the peak area ratios obtained using the quadratic regression.
# FIGS. 9-12 compare the in vitro plasma stability results for GPR-405 and THR-123 incubated in fresh rat plasma treated with heparin. FIG. 9 provides a scatter plot showing the first 240 minutes of the time-course and disappearance of the THR peptides in heparin-treated fresh rat plasma at 37° C. […] FIG. 12 compares the calculated half-life of THR-123 and GPR-405.
# [2] = THR-123 i.v. in rodents: half-life and metabolites in plasma and kidney tissue; format: in vivo, rat
# Excerpt: The main metabolite VII results from a proteolytic cleavage between positions 14 and 15 (VII in FIG. 2). The structure of each metabolite was confirmed by synthesis and analytical characterization.
# [3] = fresh rat plasma 37° C., 1 μM peptide, 0 min
# [4] = fresh rat plasma 37° C., 1 μM peptide, 1 min
# [5] = fresh rat plasma 37° C., 1 μM peptide, 5 min
# [6] = fresh rat plasma 37° C., 1 μM peptide, 15 min
# [7] = fresh rat plasma 37° C., 1 μM peptide, 30 min
# [8] = fresh rat plasma 37° C., 1 μM peptide, 60 min
# [9] = fresh rat plasma 37° C., 1 μM peptide, 120 min
# [10] = fresh rat plasma 37° C., 1 μM peptide, 240 min
# [11] = fresh rat plasma 37° C., 1 μM peptide, 240 min (4 hours), read-out: TI remaining
# [12] = fresh rat plasma 37° C., 1 μM peptide, 1440 min
# [13] = fresh rat plasma 37° C., 1 μM peptide
# [14] = fresh rat plasma treated with heparin in vitro at 37° C.
# [15] = fresh rat plasma 37° C., 1 μM peptide, 1 min, read-out: TI remaining
# [16] = fresh rat plasma 37° C., 1 μM peptide, 5 min, read-out: TI remaining
# [17] = fresh rat plasma 37° C., 1 μM peptide, 15 min, read-out: TI remaining
# [18] = fresh rat plasma 37° C., 1 μM peptide, 30 min, read-out: TI remaining
# [19] = fresh rat plasma 37° C., 1 μM peptide, 60 min, read-out: TI remaining
# [20] = fresh rat plasma 37° C., 1 μM peptide, 120 min, read-out: TI remaining
smiles,measurement,setting,value
"CC(C)C[C@@H]1NC(=O)[C@H](C(C)C)NC(=O)[C@H](CCC(N)=O)NC(=O)[C@H](CO)NC(=O)[C@H](CO)NC(=O)[C@H](CC(N)=O)NC(=O)[C@H](Cc2ccccc2)NC(=O)[C@H](Cc2ccc(O)cc2)NC(=O)[C@H](Cc2ccc(O)cc2)NC(=O)[C@@H](N)CSSC[C@@H](C(=O)N[C@@H](CCCCN)C(=O)N[C@@H](CCCNC(=N)N)C(=O)N[C@H](Cc2ccc(O)cc2)C(=O)N[C@@H](CCCNC(=N)N)C(=O)N[C@@H](CO)C(=O)O)NC1=O [GPR-405, Cys-Tyr-Tyr-Phe-Asn-Ser-Ser-Gln-Val-Leu-Cys-Lys-Arg-(D)Tyr-Arg-Ser] (H-CYYFNSSQVLCKR[dY]RS-OH; disulfide 1-11)",Mean plasma concentration,[1]; [3],1095 nM
same,Sample 1 plasma concentration,[1]; [3],1.100 µM
same,Sample 2 plasma concentration,[1]; [3],1.090 µM
same,TI remaining,[1]; [3],100%
same,Mean plasma concentration,[1]; [4],1065 nM
same,Sample 1 plasma concentration,[1]; [4],1.080 µM
same,Sample 2 plasma concentration,[1]; [4],1.050 µM
same,Mean plasma concentration,[1]; [5],1105 nM
same,Sample 1 plasma concentration,[1]; [5],1.090 µM
same,Sample 2 plasma concentration,[1]; [5],1.120 µM
same,Mean plasma concentration,[1]; [6],1065 nM
same,Sample 1 plasma concentration,[1]; [6],1.080 µM
same,Sample 2 plasma concentration,[1]; [6],1.050 µM
same,TI remaining,[1]; [6],97.3%
same,Mean plasma concentration,[1]; [7],1002 nM
same,Sample 1 plasma concentration,[1]; [7],0.963 µM
same,Sample 2 plasma concentration,[1]; [7],1.040 µM
same,Mean plasma concentration,[1]; [8],934 nM
same,Sample 1 plasma concentration,[1]; [8],0.895 µM
same,Sample 2 plasma concentration,[1]; [8],0.973 µM
same,Mean plasma concentration,[1]; [9],826 nM
same,Sample 1 plasma concentration,[1]; [9],0.836 µM
same,Sample 2 plasma concentration,[1]; [9],0.815 µM
same,Mean plasma concentration,[1]; [10],538 nM
same,Sample 1 plasma concentration,[1]; [10],0.534 µM
same,Sample 2 plasma concentration,[1]; [10],0.541 µM
same,TI remaining,"[1]; fresh rat plasma 37° C., 1 μM peptide, 240 min (4 hours)",49.1%
same,remaining at 4 h,[1]; [11],49.1%
same,Mean plasma concentration,[1]; [12],75 nM
same,Sample 1 plasma concentration,[1]; [12],0.081 µM
same,Sample 2 plasma concentration,[1]; [12],0.068 µM
same,TI remaining,"[1]; fresh rat plasma 37° C., 1 μM peptide, 1440 min (24 hours)",6.8%
same,remaining at 24 h,"[1]; fresh rat plasma 37° C., 1 μM peptide, 1440 min (24 hours), read-out: TI remaining",6.8%
same,AUC0-240,[1]; [13],195.4 μM* min/ml
same,measured half-life relative to that of THR-123,[1]; [14],about 100 times
same,stability compared with THR-123,[1]; [14],dramatically more stable than THR-123
same,"remaining at 1 min, 1 μM",[1]; [15],97.3%
same,"remaining at 5 min, 1 μM",[1]; [16],101%
same,"remaining at 0.25 h, 1 μM",[1]; [17],97.3%
same,"remaining at 0.5 h, 1 μM",[1]; [18],91.5%
same,"remaining at 1 h, 1 μM",[1]; [19],85.3%
same,"remaining at 2 h, 1 μM",[1]; [20],75.4%
"CC(C)C[C@@H]1NC(=O)[C@H](C(C)C)NC(=O)[C@H](CC(N)=O)NC(=O)[C@H](CO)NC(=O)[C@H](CO)NC(=O)[C@H](CC(=O)O)NC(=O)[C@H](CC(=O)O)NC(=O)[C@H](Cc2ccccc2)NC(=O)[C@H](Cc2ccc(O)cc2)NC(=O)[C@@H](N)CSSC[C@@H](C(=O)N[C@@H](CCCCN)C(=O)N[C@@H](CCCCN)C(=O)N[C@@H](Cc2ccc(O)cc2)C(=O)N[C@@H](CCCNC(=N)N)C(=O)N[C@@H](CO)C(=O)O)NC1=O [THR-123, Cys-Tyr-Phe-Asp-Asp-Ser-Ser-Asn-Val-Leu-Cys-Lys-Lys-Tyr-Arg-Ser] (H-CYFDDSSNVLCKKYRS-OH; disulfide 1-11)",half-life in plasma and kidney tissue,"[2]; administered intravenously to rodents, FIG. 1",short half-life
same,metabolites identified in the kidney,"[2]; rat kidney tissue, ten minutes post i.v. administration, FIG. 2","metabolites VI, VII, VIII and IX"
same,Mean plasma concentration,[1]; [3],905 nM
same,Sample 1 plasma concentration,[1]; [3],0.970 µM
same,Sample 2 plasma concentration,[1]; [3],0.840 µM
same,TI remaining,[1]; [3],100%
same,Mean plasma concentration,[1]; [4],855 nM
same,Sample 1 plasma concentration,[1]; [4],0.850 µM
same,Sample 2 plasma concentration,[1]; [4],0.860 µM
same,Mean plasma concentration,[1]; [5],295 nM
same,Sample 1 plasma concentration,[1]; [5],0.300 µM
same,Sample 2 plasma concentration,[1]; [5],0.290 µM
same,Mean plasma concentration,[1]; [6],55 nM
same,Sample 1 plasma concentration,[1]; [6],0.060 µM
same,Sample 2 plasma concentration,[1]; [6],0.050 µM
same,Mean plasma concentration,[1]; [7],30 nM
same,Sample 1 plasma concentration,[1]; [7],0.060 µM
same,Sample 2 plasma concentration,[1]; [7],0.030 µM
same,Mean plasma concentration,[1]; [8],25 nM
same,Sample 1 plasma concentration,[1]; [8],0.026 µM
same,Sample 2 plasma concentration,[1]; [8],0.024 µM
same,Mean plasma concentration,[1]; [9],18 nM
same,Sample 1 plasma concentration,[1]; [9],0.015 µM
same,Sample 2 plasma concentration,[1]; [9],0.020 µM
same,Mean plasma concentration,[1]; [10],11 nM
same,Sample 1 plasma concentration,[1]; [10],0.010 µM
same,Sample 2 plasma concentration,[1]; [10],0.011 µM
same,remaining at 4 h,[1]; [11],1.2%
same,AUC0-240,[1]; [13],15.65 μM* min/ml
same,"remaining at 1 min, 1 μM",[1]; [15],94.4%
same,"remaining at 5 min, 1 μM",[1]; [16],32.4%
same,"remaining at 0.25 h, 1 μM",[1]; [17],6.4%
same,"remaining at 0.5 h, 1 μM",[1]; [18],3.3%
same,"remaining at 1 h, 1 μM",[1]; [19],2.8%
same,"remaining at 2 h, 1 μM",[1]; [20],1.9%

# — patent US20160137714A1 (Thrasos Innovation, Inc., priority 2014, published 2016)
